Data: patent publication US20250332265A1, “PSMA TARGETED CONJUGATE COMPOUNDS AND USES THEREOF” (priority 2021, published 2025)
Numbered stars: 1 amine (or outer) side, 2 acyl side, 3 side chain; on linkers, the order of the positions; unused ones are H or OH. Bridge positions count the residues as written; N and C are the ends. Square brackets hold non-standard residues; d marks the D form. Peptide text beside a SMILES is read from it. I, II: the chains in the order shown. * marks the point of attachment. Dolaproine = CO[C@@H]([C@@H]1CCCN1)[C@@H](C)C(=O)O; Dil = CC[C@H](C)[C@H](NC)[C@@H](CC(=O)O)OC; X2 = O=C1CC([*:2])C(=O)N1CCCCCC(=O)[*:1]; γGlu = O=C(O)[C@H](CCC(=O)[*:2])N[*:1]; PABC = O=C(OCc1ccc(N[*:1])cc1)[*:2]; X1 = C[C@@H](N*)[C@@H](O)c1ccccc1; Trx = NC[C@H]1CC[C@H](C(=O)O)CC1; Cit = NC(=O)NCCC[C@H](N)C(=O)O; NMeV = CN[C@H](C(=O)O)C(C)C; CO = O=C([*:1])[*:2]; Ahx = NCCCCCC(=O)O

Tests used:
[1] = system: metastatic PC3pip model (GFP labeled PC3pip cells); experiment: Metastatic survival study; assay type: in vivo, mice
Description: Male athymic nude mice were injected into the left ventricle of the heart with 1×10^5 GFP labeled PC3pip cells to generate bone metastasis. One week later mice received 160 nmol/kg PSMA-1-VcMMAE-Cy5.5 or PBS every 4 days with a total of 5 doses and the progression of disease was monitored by GFP imaging. Five mice were used in each group.

[2] = system: PSMA-negative PC3flu cells; experiment: In vitro cytotoxicity assay (CCK-8), PC3flu; assay type: cell-based, human; details: versus PSMA-1-VcMMAE-Cy5.5
Description: (§1) Cells (1,000/well) were seeded in 96-well culture plates the day before treatment. Cells were incubated with various concentrations of drugs for 72 hours and cell viability evaluated by CCK-8 (Dojindo). The concentration required to reach 50% of cell proliferation was determined (IC50) by GraphPad Prism 3.0.

[3] = In vitro cytotoxicity assay (CCK-8), PC3flu; assay type: cell-based, human; details: 72 hours incubation, CCK-8; read-out: IC50 cytotoxicity, PC3flu cells
Description: as §1

[4] = system: heterotopic PC3pip tumors; experiment: Heterotopic survival study; assay type: in vivo, mice
Source text: Male athymic nude mice were implanted subcutaneously with 1×10^6 of PC3pip cells under the right dorsum of the mice. When tumor size reached approximately 100 mm^3 (tumor volume=Length×width^2/2), mice received drugs through tail vein injection. […] Animals were weighed and tumor size measured every other day for 90 days. Cures were defined as no tumor present at end of the 90-day study. When tumors became too large or animals were moribund they were euthanized. Five mice were used in each group.

orthotopic PC3pip tumors = experiment: Orthotopic survival study; assay type: in vivo, mice; details: 3860 nmol/kg, five mice per group
Description: Surgical orthotopic tumor implantation was performed as previously reported. Tumor growth/size was monitored using Siemens Acuson S2000 ultrasound scanner. When the tumors were at the appropriate size (5 mm as measured by ultrasound, approximately 2 weeks) animals were given PSMA-1-VcMMAE, PSMA-1-VcMMAE-Cy5.5, or PBS every four days with a total of 5 doses. Tumors were monitored every other day by ultrasound. Each group had five mice.

[5] = system: PSMA-positive PC3pip cells; experiment: In vitro cytotoxicity assay (CCK-8), PC3pip; assay type: cell-based, human
Description: as §1

[6] = In vitro cytotoxicity assay (CCK-8), PC3pip; assay type: cell-based, human; details: 72 hours incubation
Description: as §1

[7] = Maximum tolerated dose (MTD); assay type: in vivo, mice
Source text: Mice were monitored daily for 14 days.

PSMA [8] = target: T1, PSMA (Homo sapiens, UniProt Q04609); experiment: Competition binding studies, Example 2; details: PC3pip cells, 12 nM 3H-ZJ24, 1 h, 37° C.; read-out: IC50, concentration required to inhibit 50% of the binding
T1 construct: expressed in transfected cells; host or cells: PC3pip cells (PC3 retrovirally transduced with PSMA), from Dr. Michel Sadelain, MSKCC
T1 sequence (Q04609 whole entry): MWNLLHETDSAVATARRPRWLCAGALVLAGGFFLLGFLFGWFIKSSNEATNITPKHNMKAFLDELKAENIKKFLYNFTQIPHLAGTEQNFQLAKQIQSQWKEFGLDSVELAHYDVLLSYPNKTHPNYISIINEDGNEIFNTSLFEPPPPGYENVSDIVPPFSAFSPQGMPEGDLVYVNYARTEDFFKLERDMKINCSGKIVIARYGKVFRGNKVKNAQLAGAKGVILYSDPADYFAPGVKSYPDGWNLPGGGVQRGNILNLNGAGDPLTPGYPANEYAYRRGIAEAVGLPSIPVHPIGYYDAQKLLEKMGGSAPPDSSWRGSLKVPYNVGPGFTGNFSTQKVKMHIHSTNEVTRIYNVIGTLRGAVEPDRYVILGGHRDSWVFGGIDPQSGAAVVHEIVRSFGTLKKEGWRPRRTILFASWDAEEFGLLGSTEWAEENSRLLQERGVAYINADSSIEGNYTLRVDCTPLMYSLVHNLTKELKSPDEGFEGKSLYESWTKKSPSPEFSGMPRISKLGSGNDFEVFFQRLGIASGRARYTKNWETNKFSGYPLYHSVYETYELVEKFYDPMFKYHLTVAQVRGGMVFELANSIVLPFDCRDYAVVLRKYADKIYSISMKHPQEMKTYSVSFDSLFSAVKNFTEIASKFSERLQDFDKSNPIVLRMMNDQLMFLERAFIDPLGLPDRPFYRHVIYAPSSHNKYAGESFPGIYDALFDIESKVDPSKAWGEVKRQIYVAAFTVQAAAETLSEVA
Description: PC3pip cells ([…]) was suspended in 200 μL of 50 mM Tris buffer, pH 7.5. The cells were incubated at 37° C. with different concentrations of PSMA-1-MMAE-IR700 or ZJ24 in the presence of 12 nM of 3H-ZJ24 for 1 h. The cells were then washed 3 times with cold PBS and cell-associated radioactivity was measured by scintillation counting. The concentration required to inhibit 50% of the binding (IC50) was determined by GraphPad Prism 3.0. Studies were performed in triplicate.

PSMA [9] = target: T1, PSMA; experiment: Competitive binding assay (3H-ZJ24 displacement), Example 1; details: PC3pip cells, 10 nM 3H-ZJ24; read-out: IC50, concentration required to inhibit 50% of binding
Description: The assay was carried as previously reported by incubation PC3pip cells with different concentrations of drug conjugates in the presence of 10 nM N—[N—[(S)-1,3-dicarboxypropyl]carbamoyl]-S-[^3H]-methyl-L-cysteine (^3H-ZJ24) (GE Healthcare Life Sciences, Pittsburgh, PA). Radioactivity of cell pellet was counted by scintillation counter.

In the case of `CC[C@H](C)[C@@H]([C@@H](CC(=O)N1CCC[C@H]1[C@H](OC)[C@@H](C)C(=O)N[C@H](C)[C@@H](O)c1ccccc1)OC)N(C)C(=O)[C@@H](NC(=O)[C@H](C(C)C)N(C)C(=O)OCc1ccc(NC(=O)[C@H](CCCNC(N)=O)NC(=O)[C@@H](NC(=O)CCCCCN2C(=O)CC(SC[C@H](NC(=O)[C@H](CCC(=O)O)NC(=O)[C@H](CCC(=O)O)NC(=O)[C@H](CCC(=O)O)NC(=O)CCCCCNC(=O)[C@H]3CC[C@H](CNC(=O)CC[C@H](NC(=O)N[C@@H](CCC(=O)O)C(=O)O)C(=O)O)CC3)C(=O)NCCCCCC(=O)N[C@@H](CCCCN)C(N)=O)C2=O)C(C)C)cc1)C(C)C` (stereo partly drawn) [PSMA-1-VcMMAE] (I: V[Cit][PABC][NMeV]V[Dil][Dolaproine]-X1 / II: {Glu-CO-γGlu-Trx-Ahx}-EEEC[Ahx]K-NH2; linker I:N-II:4 via X2), the “effect on survival and body weight, words” value [1] is reported as “prolong animal survival time with no body weight loss”, the “increase of IC50 on removal of the Cy5.5 moiety, PC3flu cells” value [2] is reported as 11.1 fold and the IC50 [3] is reported as 222 nM. The “inhibition of PC3pip versus PC3flu tumor growth” value ([4]; 955 nmol/kg) was “significantly more effective at inhibiting PSMA-positive PC3pip tumor growth than PSMA-negative PC3flu tumor growth”, the “cure (tumor free at 90 days)” value ([4]; 3820 nmol/kg i.v. every 4 days, 5 doses) was 60% and the “tumor growth when given every 7 days” value ([4]; dosing every 7 days) was “greatly inhibited tumor growth”. For the same compound, the body weight loss ([4]; even at the highest dose tested (3820 nmol/kg)) was “No body weight loss”, the “dose at which tumor growth inhibition starts” value ([4]; mouse, in vivo) was 191 nmol/kg and the tumor free mice (orthotopic PC3pip tumors) was 1. For the same compound, the “ratio of IC50's between PC3pip and PC3flu cells” value ([5]; 72 hours incubation) was 48.2, the “effect of protease inhibitor E64 on cell killing” value ([5]; co-incubation with 50 μM E64) was “susceptible to E64 protease inhibition” and the “increase of IC50 on removal of the Cy5.5 moiety, PC3pip cells” value ([5]; versus PSMA-1-VcMMAE-Cy5.5) was 6.2 fold. The IC50 ([6]; CCK-8, read-out: IC50 cytotoxicity, PC3pip cells) was 4.64 nM, the selectivity ratio ([6]; read-out: selectivity, differential cytotoxicity between PC3pip and PC3flu cells) was 48 and the “therapeutic index (TI)” value ([7]; MTD / lowest effective dose) was 40. For the same compound, the MTD ([7]; mouse, in vivo, iv, single dose i.v., tumor-free athymic nude mice) was 7.64 µmol/kg and the “MTD relative to MMAE” value ([7]; single dose i.v.) was “more than 10 fold”.

In the case of `NCCCC[C@H](NC(=O)N[C@@H](CCC(=O)O)C(=O)O)C(=O)O` [ZJ24, (S)-2-(3-((S)-5-amino-1-carboxypentyl)-ureido)pentanedioic acid, reference compound], the IC50 (PSMA [8]) is reported as 10.7 ± 0.89 nM and the IC50 (PSMA [9]) is reported as 11.7 nM.
